Test results from ChEMBL document CHEMBL4385604, “Identification of Pyrrolo[2,3- d]pyrimidine-Based Derivatives as Potent and Orally Effective Fms-like Tyrosine Receptor Kinase 3 (FLT3) Inhibitors for Treating Acute Myelogenous Leukemia” (J Med Chem, 2019).
pIC50, pKd: −log10 of the molar value.

How the values were obtained:
[1] = test system: MV4-11; assay: Induction of apoptosis in human MV4-11 cells assessed as necrotic cells at 100 nM after 48 hrs by Annexin V/propidium iodide staining based flow cytometry (reference value: 0.06%); type: functional
[2] = test system: BaF3; assay: cells; conditions: Mus musculus, BaF3, 72 h
Description: Antiproliferative activity against mouse BAF3 cells harboring FLT3-ITD mutant measured after 72 hrs by MTT assay

[3] = biological target: Mast/stem cell growth factor receptor Kit (Homo sapiens, UniProt P10721); assay: Inhibition of recombinant human c-Kit (544 to end residues) using poly(Glu, Tyr) 4:1 as substrate measured after 40 mins in presence of [gamma-33P]-ATP by scintillation counting analysis
Mast/stem cell growth factor receptor Kit, sequence (P10721 whole entry): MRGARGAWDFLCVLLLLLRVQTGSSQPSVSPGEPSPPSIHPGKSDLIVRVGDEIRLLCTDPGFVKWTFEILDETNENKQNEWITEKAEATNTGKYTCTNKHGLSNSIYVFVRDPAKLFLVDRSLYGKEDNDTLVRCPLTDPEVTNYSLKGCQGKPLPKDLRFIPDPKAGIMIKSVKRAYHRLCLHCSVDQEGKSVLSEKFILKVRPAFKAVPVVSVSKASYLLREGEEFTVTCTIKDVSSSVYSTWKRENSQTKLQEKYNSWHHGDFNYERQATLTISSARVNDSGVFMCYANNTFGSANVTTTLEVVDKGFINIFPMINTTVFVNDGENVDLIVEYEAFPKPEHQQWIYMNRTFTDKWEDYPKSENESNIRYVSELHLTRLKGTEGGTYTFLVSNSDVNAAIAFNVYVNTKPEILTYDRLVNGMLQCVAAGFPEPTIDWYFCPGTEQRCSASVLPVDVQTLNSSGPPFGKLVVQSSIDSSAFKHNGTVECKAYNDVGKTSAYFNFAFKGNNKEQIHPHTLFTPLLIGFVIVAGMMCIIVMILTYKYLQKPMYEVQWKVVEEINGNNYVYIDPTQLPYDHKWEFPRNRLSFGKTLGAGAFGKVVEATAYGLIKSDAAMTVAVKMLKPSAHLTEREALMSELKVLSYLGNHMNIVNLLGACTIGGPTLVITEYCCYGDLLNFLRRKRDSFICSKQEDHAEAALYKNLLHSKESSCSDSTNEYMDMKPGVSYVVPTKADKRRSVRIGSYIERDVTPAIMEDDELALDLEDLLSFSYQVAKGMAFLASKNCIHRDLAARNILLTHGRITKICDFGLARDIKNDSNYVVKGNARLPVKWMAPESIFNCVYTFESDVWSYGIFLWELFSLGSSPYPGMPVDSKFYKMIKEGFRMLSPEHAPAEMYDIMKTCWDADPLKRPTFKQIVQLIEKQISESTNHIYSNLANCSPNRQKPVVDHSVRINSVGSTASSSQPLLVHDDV

[4] = test system: MV4-11; assay: Induction of apoptosis in human MV4-11 cells assessed as late apoptotic cells at 10 uM after 48 hrs by Annexin V/propidium iodide staining based flow cytometry (reference value: 2.83%); type: functional
[5] = test system: MOLM-13; assay: Cell cycle arrest in human MOLM13 cells assessed as accumulation at G2/M phase at 30 nM after 24 hrs by propidium iodide staining-based flow cytometric analysis (reference value: 13.52%); type: functional
[6] = test system: MV4-11; assay: Induction of apoptosis in human MV4-11 cells assessed as necrotic cells at 10 uM after 48 hrs by Annexin V/propidium iodide staining based flow cytometry (reference value: 0.06%); type: functional
[7] = biological target: Receptor-type tyrosine-protein kinase FLT3 (Homo sapiens, UniProt P36888, R834Q); assay: Binding affinity to human partial length FLT3 R834Q mutant (V592 to Y969 residues) expressed in HEK293 cells measured after 1 hr by qPCR analysis; type: cell-based
[8] = test system: MV4-11; assay: Antitumour activity against human MV4-11 cells xenografted in NOD/SCID mouse assessed as tumour growth inhibition at 3 mg/kg, po qd for 14 days measured every two days during compound dosing by caliper method relative to control; type: functional; conditions: MV4-11, po, read-out: TGI
[9] = test system: MV4-11; assay: Induction of apoptosis in human MV4-11 cells assessed as early apoptotic cells at 100 nM after 48 hrs by Annexin V/propidium iodide staining based flow cytometry (reference value: 2.76%); type: functional
[10] = test system: MOLM-13; assay: Induction of apoptosis in human MOLM13 cells assessed as necrotic cells at 10 uM after 48 hrs by Annexin V/propidium iodide staining based flow cytometry (reference value: 0.29%); type: functional
[11] = test system: MOLM-13; assay: Induction of apoptosis in human MOLM13 cells assessed as early apoptotic cells at 10 nM after 48 hrs by Annexin V/propidium iodide staining based flow cytometry (reference value: 5.97%); type: functional
[12] = test system: MOLM-13; assay: Induction of apoptosis in human MOLM13 cells assessed as necrotic cells at 1 uM after 48 hrs by Annexin V/propidium iodide staining based flow cytometry (reference value: 0.29%); type: functional
[13] = test system: MV4-11; assay: Induction of apoptosis in human MV4-11 cells assessed as late apoptotic cells at 10 nM after 48 hrs by Annexin V/propidium iodide staining based flow cytometry (reference value: 2.83%); type: functional
[14] = test system: MOLM-13; assay: Induction of apoptosis in human MOLM13 cells assessed as early apoptotic cells at 10 uM after 48 hrs by Annexin V/propidium iodide staining based flow cytometry (reference value: 5.97%); type: functional
[15] = test system: MV4-11; assay: Induction of apoptosis in human MV4-11 cells assessed as early apoptotic cells at 1 nM after 48 hrs by Annexin V/propidium iodide staining based flow cytometry (reference value: 2.76%); type: functional
[16] = test system: MV4-11; assay: Inhibition of MAPK in human MV4-11 cells assessed as ratio of phosphorylated ERK to beta-actin level at 30 nM after 2 hrs by Western blot analysis relative to control; type: cell-based
[17] = Toxicity in NOD/SCID mouse xenografted with human MV4-11 cells at 1 to 3 mg/kg, po qd for 14 days; type: organism-based; conditions: in vivo, 336 h
[18] = test system: Receptor-type tyrosine-protein kinase FLT3 (Homo sapiens), P36888 [UNDEFINED MUTATION]; assay: Inhibition of FLT3 ITD mutant in human MOLM13 cells assessed as ratio of phosphorylated STAT5 to beta-actin level at 100 nM after 2 hrs by Western blot analysis relative to control; type: cell-based
[19] = biological target: Receptor-type tyrosine-protein kinase FLT3 (Homo sapiens, UniProt P36888, N841I); assay: Binding affinity to human partial length FLT3 N841I mutant (V592 to Y969 residues) expressed in Escherichia coli after 1 hr by qPCR analysis
[20] = test system: MOLM-13; assay: Antitumour activity against human MOLM13 cells xenografted in NOD/SCID mouse assessed as tumour growth inhibition at 1 mg/kg, po qd for 10 days measured every two days during compound dosing by caliper method relative to control; type: functional; conditions: MOLM-13, po, read-out: TGI
[21] = biological target: Receptor-type tyrosine-protein kinase FLT3 (Homo sapiens, UniProt P36888, ITD); assay: Binding affinity to human partial length FLT3 ITD mutant expressed in Escherichia coli measured after 1 hr by qPCR analysis
[22] = test system: MOLM-13; assay: Induction of apoptosis in human MOLM13 cells assessed as viable cells at 100 nM after 48 hrs by Annexin V/propidium iodide staining based flow cytometry (reference value: 88.2%); type: functional; conditions: MOLM-13, 48 h, read-out: Activity
[23] = test system: MOLM-13; assay: Induction of apoptosis in human MOLM13 cells assessed as necrotic cells at 1 nM after 48 hrs by Annexin V/propidium iodide staining based flow cytometry (reference value: 0.29%); type: functional
[24] = biological target: Receptor-type tyrosine-protein kinase FLT3 (Homo sapiens) (UniProt P36888); assay: Inhibition of FLT3 autophosphorylation in human MV4-11 cells assessed as ratio of phosphorylated FLT3 to beta-actin level at 100 nM after 2 hrs by Western blot analysis relative to control; type: cell-based
[25] = Plasma clearance in Sprague-Dawley rat at 5 mg/kg, po by LC-MS/MS analysis; type: ADME, organism-based
[26] = test system: MV4-11; assay: Induction of apoptosis in human MV4-11 cells assessed as early apoptotic cells at 10 nM after 48 hrs by Annexin V/propidium iodide staining based flow cytometry (reference value: 2.76%); type: functional
[27] = test system: MOLM-13; assay: Cell cycle arrest in human MOLM13 cells assessed as accumulation at G2/M phase at 10 nM after 24 hrs by propidium iodide staining-based flow cytometric analysis (reference value: 13.52%); type: functional
[28] = test system: MOLM-13; assay: animal or person; conditions: Mus musculus, MOLM-13, po, read-out: TGI
Description: Antitumour activity against human MOLM13 cells xenografted in NOD/SCID mouse assessed as tumour growth inibition at 3 mg/kg, po qd for 10 days measured every two days during compound dosing by caliper method relative to control

[29] = Tmax in Sprague-Dawley rat at 5 mg/kg, po by LC-MS/MS analysis; type: ADME, organism-based; conditions: in vivo
[30] = test system: MOLM-13; assay: Antitumour activity against human MOLM13 cells xenografted in NOD/SCID mouse assessed as tumour growth inibition at 10 mg/kg, po qd for 10 days measured every two days during compound dosing by caliper method relative to control; type: functional; conditions: MOLM-13, po, read-out: TGI
[31] = test system: MOLM-13; assay: Induction of apoptosis in human MOLM13 cells after 48 hrs by Annexin V/propidium iodide staining-based flow cytometry; type: functional, cell-based
[32] = test system: MOLM-13; assay: Antitumour activity against human MOLM13 cells xenografted in po dosed NOD/SCID mouse assessed as tumour growth inhibition administered daily for 10 days; type: functional, organism-based
[33] = biological target: Receptor-type tyrosine-protein kinase FLT3 (Homo sapiens, UniProt P36888, K663Q); assay: Binding affinity to human partial length FLT3 K663Q mutant (V592 to Y969 residues) expressed in Escherichia coli after 1 hr by qPCR analysis

Molecule `C=CCn1cc(-c2ccc(NC(=O)Nc3cc(C(C)(C)C)on3)cc2)c2c(N)ncnc21` has an Activity [1] of 0.36%, a pIC50 [2] of 9.04 and a pIC50 [3] of less than 6.52. For the same molecule, the Activity [4] was 66.4%, the Activity [5] was 2.47% and the Activity [6] was 2.13%. The pKd [7] was 7.99, the inhibition in vivo at 3 mg/kg [8] was 98.2% and the Activity [9] was 11.3%. It also gave an Activity [10] of 0.4%, an Activity [11] of 15.5% and an Activity [12] of 0.62%. It also gave an Activity [13] of 11%, an Activity [14] of 0.61% and an Activity [15] of 2.56%. The fold change (FC) [16] was 0, the Activity [17] was “Non-Toxic” and the fold change (FC) [18] was 0. The pKd [19] was 8.63, the inhibition in vivo at 1 mg/kg [20] was 77.9% and the pKd [21] was 7.69. For the same molecule, the viability at 0.1 µM [22] was 62.8%, the Activity [23] was 0.76% and the fold change (FC) [24] was 0. It also gave a CL/F [25] of 20.3 mL/min/kg, an Activity [26] of 9.57% and an Activity [27] of 2.37%. It also gave an inhibition in vivo at 3 mg/kg [28] of 94.5%, a Tmax [29] of 45 min and an inhibition in vivo at 10 mg/kg [30] of 96%. For the same molecule, the Activity [31] was “Dose-dependent effect”, the TGI [32] was “Dose-dependent effect” and the pKd [33] was 8.61.
